# Measured values as given in the NIST ThermoML archive (doi:10.1021/acs.jced.6b00575).
# ± gives the expanded uncertainty stated by the source.
# Conditions: 273.15 K; 101.33 kPa; Liquid; Alternating current cell with electrodes
row,SMILES,electrical conductivity [S/m]
1,CCC(=O)[NH+](C)C.O=S(=O)([N-]S(=O)(=O)C(F)(F)F)C(F)(F)F,0.053 ± 0.001

# Same assay, conditions: 273.15 K; 101.33 kPa; Liquid; Concentric cylinders viscometry
row,SMILES,viscosity [mPa·s]
1,CCC(=O)[NH+](C)C.O=S(=O)([N-]S(=O)(=O)C(F)(F)F)C(F)(F)F,583.6 ± 21
2,"CC(=O)N(C)C [N,N-dimethylethanamide]",1.41 ± 0.03
3,"CCC(=O)N(C)C [N,N-dimethylpropionamide]",1.44 ± 0.03
4,CN(C)C=O [dimethylformamide],1.14 ± 0.02

# Same assay, conditions: 273.15 K; 101.33 kPa; Liquid; Vibrating tube method
row,SMILES,mass density [kg/m3]
1,CCC(=O)[NH+](C)C.O=S(=O)([N-]S(=O)(=O)C(F)(F)F)C(F)(F)F,1546.8 ± 1.7
2,"CC(=O)N(C)C [N,N-dimethylethanamide]",959.16 ± 0.98
3,"CCC(=O)N(C)C [N,N-dimethylpropionamide]",942.45 ± 3.8
4,CN(C)C=O [dimethylformamide],967.56 ± 0.12

# Same assay, conditions: 278.15 K; 101.33 kPa; Liquid; Alternating current cell with electrodes
row,SMILES,electrical conductivity [S/m]
1,CCC(=O)[NH+](C)C.O=S(=O)([N-]S(=O)(=O)C(F)(F)F)C(F)(F)F,0.075 ± 0.002

# Same assay, conditions: 278.15 K; 101.33 kPa; Liquid; Concentric cylinders viscometry
row,SMILES,viscosity [mPa·s]
1,CCC(=O)[NH+](C)C.O=S(=O)([N-]S(=O)(=O)C(F)(F)F)C(F)(F)F,401.3 ± 13
2,"CC(=O)N(C)C [N,N-dimethylethanamide]",1.29 ± 0.03
3,"CCC(=O)N(C)C [N,N-dimethylpropionamide]",1.32 ± 0.03
4,CN(C)C=O [dimethylformamide],1.06 ± 0.02

# Same assay, conditions: 278.15 K; 101.33 kPa; Liquid; Vibrating tube method
row,SMILES,mass density [kg/m3]
1,CCC(=O)[NH+](C)C.O=S(=O)([N-]S(=O)(=O)C(F)(F)F)C(F)(F)F,1541.52 ± 1.7
2,"CC(=O)N(C)C [N,N-dimethylethanamide]",954.56 ± 0.98
3,"CCC(=O)N(C)C [N,N-dimethylpropionamide]",938.02 ± 3.8
4,CN(C)C=O [dimethylformamide],962.83 ± 0.12

# Same assay, conditions: 283.15 K; 101.33 kPa; Liquid; Alternating current cell with electrodes
row,SMILES,electrical conductivity [S/m]
1,CCC(=O)[NH+](C)C.O=S(=O)([N-]S(=O)(=O)C(F)(F)F)C(F)(F)F,0.103 ± 0.002

# Same assay, conditions: 283.15 K; 101.33 kPa; Liquid; Concentric cylinders viscometry
row,SMILES,viscosity [mPa·s]
1,CCC(=O)[NH+](C)C.O=S(=O)([N-]S(=O)(=O)C(F)(F)F)C(F)(F)F,284.2 ± 8.5
2,"CC(=O)N(C)C [N,N-dimethylethanamide]",1.19 ± 0.03
3,"CCC(=O)N(C)C [N,N-dimethylpropionamide]",1.21 ± 0.03
4,CN(C)C=O [dimethylformamide],0.979 ± 0.021

# Same assay, conditions: 283.15 K; 101.33 kPa; Liquid; Vibrating tube method
row,SMILES,mass density [kg/m3]
1,CCC(=O)[NH+](C)C.O=S(=O)([N-]S(=O)(=O)C(F)(F)F)C(F)(F)F,1536.2 ± 1.7
2,"CC(=O)N(C)C [N,N-dimethylethanamide]",949.95 ± 0.97
3,"CCC(=O)N(C)C [N,N-dimethylpropionamide]",933.6 ± 3.8
4,CN(C)C=O [dimethylformamide],958.1 ± 0.12

# Same assay, conditions: 288.15 K; 101.33 kPa; Liquid; Alternating current cell with electrodes
row,SMILES,electrical conductivity [S/m]
1,CCC(=O)[NH+](C)C.O=S(=O)([N-]S(=O)(=O)C(F)(F)F)C(F)(F)F,0.136 ± 0.003

# Same assay, conditions: 288.15 K; 101.33 kPa; Liquid; Concentric cylinders viscometry
row,SMILES,viscosity [mPa·s]
1,CCC(=O)[NH+](C)C.O=S(=O)([N-]S(=O)(=O)C(F)(F)F)C(F)(F)F,207.2 ± 5.6
2,"CC(=O)N(C)C [N,N-dimethylethanamide]",1.09 ± 0.02
3,"CCC(=O)N(C)C [N,N-dimethylpropionamide]",1.11 ± 0.03
4,CN(C)C=O [dimethylformamide],0.891 ± 0.019

# Same assay, conditions: 288.15 K; 101.33 kPa; Liquid; Vibrating tube method
row,SMILES,mass density [kg/m3]
1,CCC(=O)[NH+](C)C.O=S(=O)([N-]S(=O)(=O)C(F)(F)F)C(F)(F)F,1530.91 ± 1.7
2,"CC(=O)N(C)C [N,N-dimethylethanamide]",945.35 ± 0.97
3,"CCC(=O)N(C)C [N,N-dimethylpropionamide]",929.18 ± 3.8
4,CN(C)C=O [dimethylformamide],953.37 ± 0.12

# Same assay, conditions: 293.15 K; 101.33 kPa; Liquid; Alternating current cell with electrodes
row,SMILES,electrical conductivity [S/m]
1,CCC(=O)[NH+](C)C.O=S(=O)([N-]S(=O)(=O)C(F)(F)F)C(F)(F)F,0.177 ± 0.004

# Same assay, conditions: 293.15 K; 101.33 kPa; Liquid; Concentric cylinders viscometry
row,SMILES,viscosity [mPa·s]
1,CCC(=O)[NH+](C)C.O=S(=O)([N-]S(=O)(=O)C(F)(F)F)C(F)(F)F,154.9 ± 3.9
2,"CC(=O)N(C)C [N,N-dimethylethanamide]",1 ± 0.02
3,"CCC(=O)N(C)C [N,N-dimethylpropionamide]",1.02 ± 0.02
4,CN(C)C=O [dimethylformamide],0.845 ± 0.018

# Same assay, conditions: 293.15 K; 101.33 kPa; Liquid; Vibrating tube method
row,SMILES,mass density [kg/m3]
1,CCC(=O)[NH+](C)C.O=S(=O)([N-]S(=O)(=O)C(F)(F)F)C(F)(F)F,1525.62 ± 1.6
2,"CC(=O)N(C)C [N,N-dimethylethanamide]",940.74 ± 0.96
3,"CCC(=O)N(C)C [N,N-dimethylpropionamide]",924.75 ± 3.8
4,CN(C)C=O [dimethylformamide],948.61 ± 0.12

# Same assay, conditions: 298.15 K; 101.33 kPa; Liquid; Alternating current cell with electrodes
row,SMILES,electrical conductivity [S/m]
1,CCC(=O)[NH+](C)C.O=S(=O)([N-]S(=O)(=O)C(F)(F)F)C(F)(F)F,0.225 ± 0.005

# Same assay, conditions: 298.15 K; 101.33 kPa; Liquid; Concentric cylinders viscometry
row,SMILES,viscosity [mPa·s]
1,CCC(=O)[NH+](C)C.O=S(=O)([N-]S(=O)(=O)C(F)(F)F)C(F)(F)F,117.7 ± 2.7
2,"CC(=O)N(C)C [N,N-dimethylethanamide]",0.946 ± 0.02
3,"CCC(=O)N(C)C [N,N-dimethylpropionamide]",0.958 ± 0.022
4,CN(C)C=O [dimethylformamide],0.81 ± 0.017

# Same assay, conditions: 298.15 K; 101.33 kPa; Liquid; Vibrating tube method
row,SMILES,mass density [kg/m3]
1,CCC(=O)[NH+](C)C.O=S(=O)([N-]S(=O)(=O)C(F)(F)F)C(F)(F)F,1520.35 ± 1.6
2,"CC(=O)N(C)C [N,N-dimethylethanamide]",936.13 ± 0.96
3,"CCC(=O)N(C)C [N,N-dimethylpropionamide]",920.32 ± 3.7
4,CN(C)C=O [dimethylformamide],943.85 ± 0.13

# Same assay, conditions: 303.15 K; 101.33 kPa; Liquid; Alternating current cell with electrodes
row,SMILES,electrical conductivity [S/m]
1,CCC(=O)[NH+](C)C.O=S(=O)([N-]S(=O)(=O)C(F)(F)F)C(F)(F)F,0.28 ± 0.006

# Same assay, conditions: 303.15 K; 101.33 kPa; Liquid; Concentric cylinders viscometry
row,SMILES,viscosity [mPa·s]
1,CCC(=O)[NH+](C)C.O=S(=O)([N-]S(=O)(=O)C(F)(F)F)C(F)(F)F,91.33 ± 2
2,"CC(=O)N(C)C [N,N-dimethylethanamide]",0.883 ± 0.019
3,"CCC(=O)N(C)C [N,N-dimethylpropionamide]",0.892 ± 0.021
4,CN(C)C=O [dimethylformamide],0.765 ± 0.016

# Same assay, conditions: 303.15 K; 101.33 kPa; Liquid; Vibrating tube method
row,SMILES,mass density [kg/m3]
1,CCC(=O)[NH+](C)C.O=S(=O)([N-]S(=O)(=O)C(F)(F)F)C(F)(F)F,1515.12 ± 1.6
2,"CC(=O)N(C)C [N,N-dimethylethanamide]",931.51 ± 0.96
3,"CCC(=O)N(C)C [N,N-dimethylpropionamide]",915.93 ± 3.7
4,CN(C)C=O [dimethylformamide],939.07 ± 0.13

# Same assay, conditions: 313.15 K; 101.33 kPa; Liquid; Alternating current cell with electrodes
row,SMILES,electrical conductivity [S/m]
1,CCC(=O)[NH+](C)C.O=S(=O)([N-]S(=O)(=O)C(F)(F)F)C(F)(F)F,0.415 ± 0.008
2,"CC(=O)[NH+](C)C.O=S(=O)([N-]S(=O)(=O)C(F)(F)F)C(F)(F)F [N,N-dimethylacetamidium bis(trifluoromethanesulfonyl)amide]",0.403 ± 0.008

# Same assay, conditions: 313.15 K; 101.33 kPa; Liquid; Concentric cylinders viscometry
row,SMILES,viscosity [mPa·s]
1,CCC(=O)[NH+](C)C.O=S(=O)([N-]S(=O)(=O)C(F)(F)F)C(F)(F)F,57.92 ± 1.2
